Experimental data published in PMC7311426, “An amphipathic peptide with antibiotic activity against multidrug-resistant Gram-negative bacteria” (Nature Communications, 2020).
In brackets after ≈: the same amount, converted by molar mass. Where two headings read alike, the source gives them in different places. Residues, ends and D or L forms follow the SMILES beside them.

What was measured:
Experiment in all cases: microbe, parasite or virus in culture
[1] = tested on: A. baumannii; settings: A. baumannii Greece CI, XDR; PmxR; MHB; mode of 6 replicates
Summary of the method: (§1)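 MICs were scored by eye after 18-20 h static incubation at 37 °C, with bacteria at 5 × 10^5 CFU mL^−1 in MHB. Peptides were serially diluted 2-fold over 12 points, top 128 or 64 μg mL^−1. CAMHB (CLSI) and 1% agarose-MHB variants were also run, at least six replicates.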

[2] = tested on: E. coli
Summary of the method: as §1

[3] = tested on: K. pneumoniae; settings: for MIC, broth microdilution: plate 1, colony 1; for MIC K. pneumoniae ATCC BAA-2146: NDM-1 strain, NBS Corning 3641 plate
Summary of the method: as §1

[4] = tested on: P. aeruginosa
Summary of the method: as §1

CC(C)[C@@H]1NC(=O)[C@H](Cc2ccc(O)cc2)NC(=O)[C@H](Cc2c[nH]c3ccccc23)NC(=O)[C@@H](NC(=O)[C@H](Cc2ccccc2)NC(=O)CN)CSSC[C@@H](C(=O)N[C@@H](CC(N)=O)C(=O)O)NC(=O)[C@H](CCCNC(=N)N)NC(=O)[C@H](CCCNC(=N)N)NC(=O)[C@H](Cc2ccc(O)cc2)NC(=O)[C@@H]2CSSC[C@H](NC1=O)C(=O)N[C@@H](C)C(=O)N[C@@H](CCCNC(=N)N)C(=O)N[C@@H](CCCNC(=N)N)C(=O)N[C@@H](CC(N)=O)C(=O)NCC(=O)N[C@@H](C)C(=O)N[C@@H](CCCNC(=N)N)C(=O)N[C@@H](C(C)C)C(=O)N2 [AA139] (HELM PEPTIDE1{G.F.C.W.Y.V.C.A.R.R.N.G.A.R.V.C.Y.R.R.C.N}$PEPTIDE1,PEPTIDE1,3:R3-20:R3|PEPTIDE1,PEPTIDE1,7:R3-16:R3$$$V2.0)
BMD MIC [1]: 0.5 µg/mL | MIC against ESBL producing E. coli DSA 443 [2]: 0.5 µg/mL (≈ 0.196 µM) | MIC, broth microdilution [2]: 0.06 µg/mL (≈ 0.0235 µM) | MIC, broth microdilution ([2]; E. coli AUD172 spontaneous mutant, AA139 selection 4X, plate 2, colony 2, drug-free passage 1): 0.12 µg/mL (≈ 0.0471 µM) | MIC, broth microdilution ([2]; E. coli AUD172 spontaneous mutant, AA139 selection 4X, plate 2, colony 2, drug-free passage 5): 0.25 µg/mL (≈ 0.098 µM) | BMD MIC ([2]; E. coli ESBL20150072, mcr-1 pos, ESBL, CAMHB, AA139): 0.5 µg/mL | BMD MIC [3]: 0.5 µg/mL | MIC K. pneumoniae BAA-2146 (NDM-1) ([3]; BMD, MHB, 18-20 h 37 °C, mode of ≥6 independent biological replicates): 1 µg/mL (≈ 0.392 µM) | MIC, broth microdilution ([3]; K. pneumoniae 3010 spontaneous mutant, AA139 selection 4X, drug-free passage 1): 2, 2 µg/mL | MIC, broth microdilution ([3]; K. pneumoniae 3010 spontaneous mutant, AA139 selection 4X, drug-free passage 5): 2, 2 µg/mL | MIC, broth microdilution ([3]; K. pneumoniae 3010 spontaneous mutant, AA139 selection 8X, drug-free passage 1): 2, 2 µg/mL | MIC, broth microdilution ([3]; K. pneumoniae 3010 spontaneous mutant, AA139 selection 8X, drug-free passage 5): 2, 2 µg/mL | BMD MIC ([3]; K. pneumoniae ATCC 700603 (K6), MDR, OXA-2/SHV-18, CAMHB, mode of 6 replicates): 2 µg/mL | BMD MIC ([3]; K. pneumoniae ATCC 700603 (K6), MDR, OXA-2/SHV-18, MHB, mode of 6 replicates): 0.5 µg/mL | BMD MIC ([3]; K. pneumoniae BAA-2146, MDR, ESBL, NDM-1 pos, MHB, mode of 6 replicates): 1 µg/mL | BMD MIC ([3]; K. pneumoniae Greece CI 8_GR_13, XDR, KPC-2, PmxR, MHB, mode of 6 replicates): 16 µg/mL | MIC, broth microdilution ([3]; K. pneumoniae ST258 spontaneous mutant, AA139 selection 4X, drug-free passage 1): 2, 2 µg/mL | MIC, broth microdilution ([3]; K. pneumoniae ST258 spontaneous mutant, AA139 selection 4X, drug-free passage 5): 2, 2 µg/mL | MIC K. pneumoniae ATCC BAA-2146 ([3]; CAMHB, replicate 1): 1 µg/mL (≈ 0.392 µM) | MIC K. pneumoniae ATCC BAA-2146 ([3]; CAMHB, replicate 2): 1 µg/mL (≈ 0.392 µM) | MIC K. pneumoniae ATCC BAA-2146 ([3]; CAMHB, replicate 3): 1 µg/mL (≈ 0.392 µM) | MIC K. pneumoniae ATCC BAA-2146 ([3]; CAMHB, replicate 4): 2 µg/mL (≈ 0.784 µM) | MIC K. pneumoniae ATCC BAA-2146 ([3]; CAMHB, replicate 5): 1 µg/mL (≈ 0.392 µM) | MIC K. pneumoniae ATCC BAA-2146 ([3]; CAMHB, replicate 6): 1 µg/mL (≈ 0.392 µM) | MIC K. pneumoniae ATCC BAA-2146 ([3]; CAMHB, replicate 7): 0.5 µg/mL (≈ 0.196 µM) | MIC K. pneumoniae ATCC BAA-2146 ([3]; CAMHB, replicate 8): 0.5 µg/mL (≈ 0.196 µM) | MIC K. pneumoniae ATCC BAA-2146 ([3]; CAMHB, replicate 9): 0.5 µg/mL (≈ 0.196 µM) | MIC K. pneumoniae ATCC BAA-2146 ([3]; CAMHB, replicate 10): 0.25 µg/mL (≈ 0.098 µM) | MIC K. pneumoniae ATCC BAA-2146 ([3]; CAMHB, replicate 11): 0.5 µg/mL (≈ 0.196 µM) | MIC K. pneumoniae ATCC BAA-2146 ([3]; CAMHB, replicate 12): 0.5 µg/mL (≈ 0.196 µM) | MIC K. pneumoniae ATCC BAA-2146 ([3]; CAMHB, replicate 13): 1 µg/mL (≈ 0.392 µM) | MIC K. pneumoniae ATCC BAA-2146 ([3]; CAMHB, replicate 14): 1 µg/mL (≈ 0.392 µM) | MIC against P. aeruginosa (ATCC 27853) [4]: 1.0 µg/mL (≈ 0.392 µM) | MIC, broth microdilution [4]: 1 µg/mL (≈ 0.392 µM) | MIC, broth microdilution ([4]; P. aeruginosa ATCC 27853 spontaneous mutant, AA139 selection 4X, plate 1, colony 1, drug-free passage 1): 1, 1 µg/mL | MIC, broth microdilution ([4]; P. aeruginosa ATCC 27853 spontaneous mutant, AA139 selection 4X, plate 1, colony 1, drug-free passage 5): 1, 1 µg/mL | MIC, broth microdilution ([4]; P. aeruginosa ATCC 27853 spontaneous mutant, AA139 selection 4X, plate 1, colony 2, drug-free passage 1): 1, 1 µg/mL | MIC, broth microdilution ([4]; P. aeruginosa ATCC 27853 spontaneous mutant, AA139 selection 4X, plate 1, colony 2, drug-free passage 5): 1, 1 µg/mL | MIC, broth microdilution ([4]; P. aeruginosa ATCC 27853 spontaneous mutant, AA139 selection 4X, plate 1, colony 3, drug-free passage 1): 1, 1 µg/mL | MIC, broth microdilution ([4]; P. aeruginosa ATCC 27853 spontaneous mutant, AA139 selection 4X, plate 1, colony 3, drug-free passage 5): 1, 1 µg/mL | MIC, broth microdilution ([4]; P. aeruginosa ATCC 27853 spontaneous mutant, AA139 selection 4X, plate 1, colony 4, drug-free passage 1): 2 µg/mL (≈ 0.784 µM) | MIC, broth microdilution ([4]; P. aeruginosa ATCC 27853 spontaneous mutant, AA139 selection 4X, plate 1, colony 4, drug-free passage 5): 1 µg/mL (≈ 0.392 µM) | MIC, broth microdilution ([4]; P. aeruginosa ATCC 27853 spontaneous mutant, AA139 selection 4X, plate 1, colony 5, drug-free passage 1): 2, 2 µg/mL | MIC, broth microdilution ([4]; P. aeruginosa ATCC 27853 spontaneous mutant, AA139 selection 4X, plate 1, colony 5, drug-free passage 5): 2, 2 µg/mL | MIC, broth microdilution ([4]; P. aeruginosa ATCC 27853 spontaneous mutant, AA139 selection 4X, plate 1, colony 6, drug-free passage 1): 1, 1 µg/mL | MIC, broth microdilution ([4]; P. aeruginosa ATCC 27853 spontaneous mutant, AA139 selection 4X, plate 1, colony 6, drug-free passage 5): 1, 1 µg/mL | MIC, broth microdilution ([4]; P. aeruginosa ATCC 27853 spontaneous mutant, AA139 selection 4X, plate 2, colony 1, drug-free passage 1): 1, 1 µg/mL | MIC, broth microdilution ([4]; P. aeruginosa ATCC 27853 spontaneous mutant, AA139 selection 4X, plate 2, colony 1, drug-free passage 5): 1, 1 µg/mL | MIC, broth microdilution ([4]; P. aeruginosa ATCC 27853 spontaneous mutant, AA139 selection 4X, plate 2, colony 2, drug-free passage 1): 1, 1 µg/mL | MIC, broth microdilution ([4]; P. aeruginosa ATCC 27853 spontaneous mutant, AA139 selection 4X, plate 2, colony 2, drug-free passage 5): 1, 1 µg/mL | MIC, broth microdilution ([4]; P. aeruginosa ATCC 27853 spontaneous mutant, AA139 selection 4X, plate 2, colony 3, drug-free passage 1): 1 µg/mL (≈ 0.392 µM) | MIC, broth microdilution ([4]; P. aeruginosa ATCC 27853 spontaneous mutant, AA139 selection 4X, plate 2, colony 3, drug-free passage 5): 0.5 µg/mL (≈ 0.196 µM) | MIC, broth microdilution ([4]; P. aeruginosa ATCC 27853 spontaneous mutant, AA139 selection 4X, plate 2, colony 4, drug-free passage 1): 1 µg/mL (≈ 0.392 µM) | MIC, broth microdilution ([4]; P. aeruginosa ATCC 27853 spontaneous mutant, AA139 selection 4X, plate 2, colony 4, drug-free passage 5): 0.5 µg/mL (≈ 0.196 µM)
